Laboratory results as given in patent EP4707280A1, “1,4-CINEOLE DERIVATIVE AND INTERMEDIATE THEREOF, HERBICIDE CONTAINING SAID DERIVATIVE AS ACTIVE INGREDIENT, METHOD FOR USING HERBICIDE, AND METHOD FOR PREPARING AGROCHEMICAL COMPOSITION” (HOKKO CHEMICAL INDUSTRY CO., LTD., priority 2023, dated 2024).

Assays:
Assay type in all cases: in vivo
[1] = test system: Monochoria vaginalis; assay: Test Example 1: herbicidal effect test by soil application in paddy rice; details: 120 g active ingredient per 10 ares, applied immediately after sowing, flooded pots, 14 days after application; for pest or weed control at 1200 g/ha: Pontederia vaginalis, soil, 336 h, read-out: weed inhibition rate
Procedure, shortened: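 Inhibition rate (%) read 14 days after treatment, duplicate pots. Water-diluted emulsifiable concentrate was applied by dropper at 120 g active ingredient/10 ares right after sowing. Seeds (30 per species, 0–1 cm deep) went into puddled paddy soil kept flooded at about 3 cm in a greenhouse.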

[2] = test system: Monochoria vaginalis; assay: Test Example 5: herbicidal effect test by soil application in paddy rice (low dose); details: Pontederia vaginalis, 336 h, 7.5 g per 10 ares, applied immediately after sowing, flooded pots, 14 days after application, read-out: weed inhibition rate
Procedure, shortened: (§1)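 Pre-emergence paddy test: seeds sown 0–1 cm (30 each), pots flooded ~3 cm, greenhouse. EC dilution dropped into water right after sowing, 7.5 g a.i./10 a. Duplicate pots; weed inhibition rate (%) by formula, day 14.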

[3] = test system: Scirpus juncoides; assay: as above; details: Schoenoplectiella juncoides, 336 h, 7.5 g per 10 ares, applied immediately after sowing, flooded pots, 14 days after application, read-out: weed inhibition rate
Procedure, shortened: as §1

[4] = test system: Echinochloa crus-galli; assay: Test Example 3: herbicidal effect test by soil application in upland field; details: Echinochloa crus-galli, 120 g per 10 ares, sprayed one day after sowing, 14 days after application, read-out: weed inhibition rate
Procedure, shortened: (§2)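 Weed inhibition (%) was assessed 14 days after treatment, in duplicate per concentration group. Seeds had been mixed into the upper 1 cm of upland alluvial loam, and the soil surface was sprayed one day later with the diluted emulsifiable concentrate at 120 g active ingredient per 10 ares.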

[5] = test system: Digitaria ciliaris; assay: as above; details: Digitaria ciliaris, 120 g per 10 ares, sprayed one day after sowing, 14 days after application, read-out: weed inhibition rate
Procedure, shortened: as §2

[6] = test system: Echinochloa crus-galli; assay: Test Example 4: herbicidal effect test by stem and leaf treatment in upland field; details: Echinochloa crus-galli; 120 g per 10 ares; sprayed seven days after sowing, upland soil; 14 days after application; read-out: weed inhibition rate
[7] = test system: Echinochloa crus-galli; assay: Test Example 8: herbicidal effect test by stem and leaf treatment in upland field (low dose); details: Echinochloa crus-galli; 7.5 g per 10 ares; sprayed seven days after sowing, upland soil; 14 days after application; read-out: weed inhibition rate
[8] = test system: Digitaria ciliaris; assay: as above; details: Digitaria ciliaris; 7.5 g per 10 ares; sprayed seven days after sowing, upland soil; 14 days after application; read-out: weed inhibition rate
[9] = test system: Echinochloa crus-galli var. formosensis; assay: Test Example 5: herbicidal effect test by soil application in paddy rice (low dose); details: Echinochloa crus-galli, soil, 336 h; 7.5 g per 10 ares; applied immediately after sowing, flooded pots; 14 days after application; read-out: weed inhibition rate
Procedure, shortened: as §1

[10] = test system: Digitaria ciliaris; assay: Test Example 4: herbicidal effect test by stem and leaf treatment in upland field; details: Digitaria ciliaris; 120 g per 10 ares; sprayed seven days after sowing, upland soil; 14 days after application; read-out: weed inhibition rate

CO[C@H]1C[C@]2(C)O[C@@]1(C(C)C)C[C@H]2OCc1ccccc1F [1-156, (1S,2R,4R,5S)-2-((2-fluorobenzyl)oxy)-4-isopropyl-5-methoxy-1-methyl-7-oxabicyclo[2.2.1]heptane]
≥ 80%: pest or weed control at 1200 g/ha [1] | inhibition at 75 g/ha [2] | inhibition at 75 g/ha [3] | inhibition at 1200 g/ha [4] | inhibition at 1200 g/ha [5] | inhibition at 1200 g/ha [6] | inhibition at 75 g/ha [7] | inhibition at 75 g/ha [8] | inhibition at 75 g/ha [9] | inhibition at 1200 g/ha [10]

CC(C)[C@]12C[C@@H](OCc3cccc(F)c3F)[C@](C)(CC1=O)O2 [2-14, (1R,4S,5R)-5-((2,3-difluorobenzyl)oxy)-1-isopropyl-4-methyl-7-oxabicyclo[2.2.1]heptan-2-one]
≥ 80%: pest or weed control at 1200 g/ha [1] | inhibition at 75 g/ha [2] | inhibition at 75 g/ha [3] | inhibition at 1200 g/ha [4] | inhibition at 1200 g/ha [5] | inhibition at 1200 g/ha [6] | inhibition at 75 g/ha [7] | inhibition at 75 g/ha [8] | inhibition at 75 g/ha [9] | inhibition at 1200 g/ha [10]

CC(C)[C@]12C[C@@H](OCc3ccccc3F)[C@](C)(C[C@@H]1F)O2 [1-5, (1R,2S,4S,5R)-2-fluoro-5-((2-fluorobenzyl)oxy)-1-isopropyl-4-methyl-7-oxabicyclo[2.2.1]heptane]
≥ 80%: pest or weed control at 1200 g/ha [1] | inhibition at 75 g/ha [2] | inhibition at 75 g/ha [3] | inhibition at 1200 g/ha [4] | inhibition at 1200 g/ha [5] | inhibition at 1200 g/ha [6] | inhibition at 75 g/ha [7] | inhibition at 75 g/ha [8] | inhibition at 75 g/ha [9] | inhibition at 1200 g/ha [10]

Cc1cccc(F)c1CO[C@@H]1C[C@]2(C(C)C)O[C@@]1(C)CC2=O [2-353, (1R,4S,5R)-5-((2-fluoro-6-methylbenzyl)oxy)-1-isopropyl-4-methyl-7-oxabicyclo[2.2.1]heptan-2-one]
≥ 80%: pest or weed control at 1200 g/ha [1] | inhibition at 75 g/ha [2] | inhibition at 75 g/ha [3] | inhibition at 1200 g/ha [4] | inhibition at 1200 g/ha [5] | inhibition at 1200 g/ha [6] | inhibition at 75 g/ha [7] | inhibition at 75 g/ha [8] | inhibition at 75 g/ha [9] | inhibition at 1200 g/ha [10]

Cc1ccccc1CO[C@@H]1C[C@]2(C(C)C)O[C@@]1(C)C[C@@H]2O [1-24, (1R,2S,4S,5R)-1-isopropyl-4-methyl-5-((2-methylbenzyl)oxy)-7-oxabicyclo[2.2.1]heptan-2-ol]
≥ 80%: pest or weed control at 1200 g/ha [1] | inhibition at 75 g/ha [2] | inhibition at 75 g/ha [3] | inhibition at 1200 g/ha [4] | inhibition at 1200 g/ha [5] | inhibition at 1200 g/ha [6] | inhibition at 75 g/ha [7] | inhibition at 75 g/ha [8] | inhibition at 75 g/ha [9] | inhibition at 1200 g/ha [10]

CC(C)[C@]12C=C[C@](C)(O1)[C@H](OCc1c(F)cccc1F)C2 [3-7, (1R,4S,5R)-5-[(2,6-difluorophenyl)methoxy]-4-methyl-1-isopropyl-7-oxabicyclo[2.2.1]hept-2-ene]
≥ 80%: pest or weed control at 1200 g/ha [1] | inhibition at 75 g/ha [2] | inhibition at 75 g/ha [3] | inhibition at 1200 g/ha [4] | inhibition at 1200 g/ha [5] | inhibition at 1200 g/ha [6] | inhibition at 75 g/ha [7] | inhibition at 75 g/ha [8] | inhibition at 75 g/ha [9] | inhibition at 1200 g/ha [10]

CC(C)=CCO[C@@H]1C[C@]2(C(C)C)O[C@@]1(C)C[C@@H]2Br [1-672, (1S,2R,4R,5S)-5-bromo-1-methyl-2-(3-methylbut-2-enoxy)-4-isopropyl-7-oxabicyclo[2.2.1]heptane]
≥ 80%: pest or weed control at 1200 g/ha [1] | inhibition at 75 g/ha [2] | inhibition at 75 g/ha [3] | inhibition at 1200 g/ha [4] | inhibition at 1200 g/ha [5] | inhibition at 1200 g/ha [6] | inhibition at 75 g/ha [7] | inhibition at 75 g/ha [8] | inhibition at 75 g/ha [9] | inhibition at 1200 g/ha [10]

CC(C)[C@]12C[C@@H](OCc3ccccc3F)[C@](C)(CC1OCC1CC1)O2 (mixture of isomers) [1-921, (1S,2R,4R,SR)-5-(cyclopropylmethoxy)-2-[(2-fluorophenyl)methoxy]-1-methyl-4-isopropyl-7-oxabicyclo[2.2.1]heptane]
≥ 80%: pest or weed control at 1200 g/ha [1] | inhibition at 75 g/ha [2] | inhibition at 75 g/ha [3] | inhibition at 1200 g/ha [4] | inhibition at 1200 g/ha [5] | inhibition at 1200 g/ha [6] | inhibition at 75 g/ha [7] | inhibition at 75 g/ha [8] | inhibition at 75 g/ha [9] | inhibition at 1200 g/ha [10]

Cc1ccccc1CO[C@@H]1C[C@]2(C(C)C)O[C@@]1(C)CC2C (stereo partly drawn) [1-83, (1S,2R,4R)-4-isopropyl-1,5-dimethyl-2-((2-methylbenzyl)oxy)-7-oxabicyclo[2.2.1]heptane]
≥ 80%: pest or weed control at 1200 g/ha [1] | inhibition at 75 g/ha [2] | inhibition at 75 g/ha [3] | inhibition at 1200 g/ha [4] | inhibition at 1200 g/ha [5] | inhibition at 1200 g/ha [6] | inhibition at 75 g/ha [7] | inhibition at 75 g/ha [8] | inhibition at 75 g/ha [9] | inhibition at 1200 g/ha [10]

CCCO[C@H]1C[C@]2(C)O[C@@]1(C(C)C)C[C@H]2OCc1ccccc1F [1-1604, (1S,2R,4R,SS)-2-[(2-fluorophenyl)methoxy]-1-methyl-4-isopropyl-5-propoxy-7-oxabicyclo[2.2.1]heptane]
≥ 80%: weed inhibition rate [1] | inhibition at 75 g/ha [2] | inhibition at 75 g/ha [3] | inhibition at 1200 g/ha [4] | inhibition at 1200 g/ha [5] | inhibition at 1200 g/ha [6] | inhibition at 75 g/ha [7] | inhibition at 75 g/ha [8] | inhibition at 75 g/ha [9] | inhibition at 1200 g/ha [10]

CC(C)[C@]12C[C@@H](OCc3c(F)cccc3F)[C@](C)(CC1=O)O2 [2-20, (1R,4S,5R)-5-((2,6-difluorobenzyl)oxy)-1-isopropyl-4-methyl-7-oxabicyclo[2.2.1]heptan-2-one]
≥ 80%: pest or weed control at 1200 g/ha [1] | inhibition at 75 g/ha [2] | inhibition at 75 g/ha [3] | inhibition at 1200 g/ha [4] | inhibition at 1200 g/ha [5] | inhibition at 1200 g/ha [6] | inhibition at 75 g/ha [7] | inhibition at 75 g/ha [8] | inhibition at 75 g/ha [9] | inhibition at 1200 g/ha [10]

CC(C)[C@]12C[C@@H](OCc3cccc(F)c3)[C@](C)(CC1=O)O2 [2-351, (1R,4S,5R)-5-((3-fluorobenzyl)oxy)-1-isopropyl-4-methyl-7-oxabicyclo[2.2.1]heptan-2-one]
≥ 80%: pest or weed control at 1200 g/ha [1] | inhibition at 75 g/ha [2] | inhibition at 75 g/ha [3] | inhibition at 1200 g/ha [4] | inhibition at 1200 g/ha [5] | inhibition at 1200 g/ha [6] | inhibition at 75 g/ha [7] | inhibition at 75 g/ha [8] | inhibition at 75 g/ha [9] | inhibition at 1200 g/ha [10]

CC(C)[C@]12C=C[C@](C)(O1)[C@H](OCc1ccccc1)C2 [3-1, (1R,4S,5R)-4-methyl-5-phenylmethoxy-1-isopropyl-7-oxabicyclo[2.2.1]hept-2-ene]
≥ 80%: pest or weed control at 1200 g/ha [1] | inhibition at 75 g/ha [2] | inhibition at 75 g/ha [3] | inhibition at 1200 g/ha [4] | inhibition at 1200 g/ha [5] | inhibition at 1200 g/ha [6] | inhibition at 75 g/ha [7] | inhibition at 75 g/ha [8] | inhibition at 75 g/ha [9] | inhibition at 1200 g/ha [10]

CC(C)[C@]12C[C@@H](OCc3ccccc3F)[C@](C)(CC1=O)O2 [2-9, (1R,4S,5R)-5-((2-fluorobenzyl)oxy)-1-isopropyl-4-methyl-7-oxabicyclo[2.2.1]heptan-2-one]
≥ 80%: pest or weed control at 1200 g/ha [1] | inhibition at 75 g/ha [2] | inhibition at 75 g/ha [3] | inhibition at 1200 g/ha [4] | inhibition at 1200 g/ha [5] | inhibition at 1200 g/ha [6] | inhibition at 75 g/ha [7] | inhibition at 75 g/ha [8] | inhibition at 75 g/ha [9] | inhibition at 1200 g/ha [10]

CC(C)C12CC(OCc3ccccc3F)C(C)(CC1Br)O2 (stereo not drawn) [1-1355, 5-bromo-2-[(2-fluorophenyl)methoxy]-1-methyl-4-isopropyl-7-oxabicyclo[2.2.1]heptane]
≥ 80%: pest or weed control at 1200 g/ha [1] | inhibition at 75 g/ha [2] | inhibition at 75 g/ha [3] | inhibition at 1200 g/ha [4] | inhibition at 1200 g/ha [5] | inhibition at 1200 g/ha [6] | inhibition at 75 g/ha [7] | inhibition at 75 g/ha [8] | inhibition at 75 g/ha [9] | inhibition at 1200 g/ha [10]
